# In patent US9376418B2, “Substituted pyridine spleen tyrosine kinase (SYK) inhibitors” (Merck Sharp & Dohme Corp., priority 2012, dated 2016):
# Biological target: T1, recombinant human GST-SYK (Homo sapiens, UniProt P43405)
# T1 construct: purchased Carna Biosciences 08-176
# Assay: Homogeneous Time-Resolved Fluorescence (HTRF) assay for the recombinant human Syk enzyme
# Type: biochemical
# Settings: HTRF assay, recombinant human GST-SYK; IC50 given as class symbols; read-out: rhSYK Activity
# Method in brief: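 Phosphorylation of a biotinylated Syk substrate peptide (250 nM) was run for 45 min at room temperature with 25 μM ATP and 5 mM Mg. It followed a 10-min preincubation of GST-hSYK ([…]) with compound in 15 mM Tris-HCl pH 7.5, 2 mM DTT. Product was detected by time-resolved fluorescence using a europium anti-phosphotyrosine antibody plus SA-APC in EDTA-containing quench buffer.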
row,Structure (SMILES),IC50
1,"CCOC(=O)CCc1ccc(-c2cc(C)cc(Nc3nccc(C4CC4)n3)c2)nc1 [Example 2.37, ethyl 3-(6-{3-[(4-cyclopropylpyrimidin-2-yl)amino]-5-methylphenyl}pyridin-3-yl)propanoate]",0.1 to 1 µM
2,"Cc1cc(Nc2nccc(C(F)(F)F)n2)cc(-c2ccc(C(C)(O)c3ccc(C(=O)O)cc3)nc2)c1 (centres unmarked) [Example 9.20, 4-{1-hydroxy-1-[5-(3-methyl-5-{[4-(trifluoromethyl)pyrimidin-2-yl]amino}phenyl)pyridin-2-yl]ethyl}benzoic acid]",< 0.1 µM
3,"COc1ccc(-c2cc(C)cc(Nc3nccc(C(F)(F)F)n3)c2)cn1 [Example 4.5, N-[3-(6-methoxypyridin-3-yl)-5-methylphenyl]-4-(trifluoromethyl)pyrimidin-2-amine]",0.1 to 1 µM
4,"Cc1cc(Nc2nccc(C(F)(F)F)n2)cc(-c2ccc(N)c(O)n2)c1 [Example 2.10, 3-amino-6-(3-methyl-5-{[4-(trifluoromethyl)pyrimidin-2-yl]amino}phenyl)pyridin-2-ol]",< 0.1 µM
5,"Cc1cc(Nc2nccc(C(F)(F)F)n2)cc(-c2ccc(N[C@@H](C)C(=O)O)nc2)c1 [Example 7.86, N-[5-(3-methyl-5-{[4-(trifluoromethyl)pyrimidin-2-yl]amino}phenyl)pyridin-2-yl]-L-alanine]",< 0.1 µM
6,"Cc1cc(Nc2nccc(C)n2)cc(-c2ccc([C@]3(O)CC[C@@H](C(=O)O)CC3)nc2)c1 [Example 9.37, cis-4-hydroxy-4-(5-{3-methyl-5-[(4-methylpyrimidin-2-yl)amino]phenyl}pyridin-2-yl)cyclohexanecarboxylic acid]",< 0.1 µM
7,"CCOC(=O)Cc1ccc(-c2cccc(Nc3nccc(C(F)(F)F)n3)c2)nc1 [Example 2.5, ethyl [6-(3-{[4-(trifluoromethyl)pyrimidin-2-yl]amino}phenyl)pyridin-3-yl]acetate]",0.1 to 1 µM
8,"CCC(CO)Nc1ccc(-c2cc(C)cc(Nc3nccc(C(F)(F)F)n3)c2)cn1 (centres unmarked) [Example 7.23, 2-{[5-(3-methyl-5-{[4-(trifluoromethyl)pyrimidin-2-yl]amino}phenyl)pyridin-2-yl]amino}butan-1-ol]",< 0.1 µM
9,"Cc1cc(Nc2nccc(C(F)(F)F)n2)cc(-c2ccc(C(=O)N3CCN(C)C(=O)C3C)nc2)c1 (centres unmarked) [Example 16.23, 1,3-dimethyl-4-{[5-(3-methyl-5-{[4-(trifluoromethyl)pyrimidin-2-yl]amino}phenyl)pyridin-2-yl]carbonyl}piperazin-2-one]",0.1 to 1 µM
10,"Cc1cc(Nc2nccc(C(F)(F)F)n2)cc(-c2ccc(C3(O)CCC(C(=O)O)C3(C)C)nc2)c1 (centres unmarked) [Example 9.22, 3-hydroxy-2,2-dimethyl-3-[5-(3-methyl-5-{[4-(trifluoromethyl)pyrimidin-2-yl]amino}phenyl)pyridin-2-yl]cyclopentanecarboxylic acid]",< 0.1 µM
11,"Cc1cc(Nc2nccc(C(F)(F)F)n2)cc(-c2ccc(N[C@@H](Cc3c[nH]c4ccccc34)C(=O)O)nc2)c1 [Example 7.100, N-[5-(3-methyl-5-{[4-(trifluoromethyl)pyrimidin-2-yl]amino}phenyl)pyridin-2-yl]-L-tryptophan]",< 0.1 µM
12,Cc1cc(Nc2nccc(C(F)(F)F)n2)cc(-c2cncc(NCC3CC3)c2)c1 [Example 15.11],< 0.1 µM
13,"COC1CN(C(=O)c2ccc(-c3cc(C)cc(Nc4nccc(C(F)(F)F)n4)c3)cn2)C1 [Example 16.34, N-(3-{6-[(3-methoxyazetidin-1-yl)carbonyl]pyridin-3-yl}-5-methylphenyl)-4-(trifluoromethyl)pyrimidin-2-amine]",0.1 to 1 µM
14,"Oc1ccc(-c2cccc(Nc3nccc(C(F)(F)F)n3)c2)cn1 [Example 2.43, 5-(3-{[4-(trifluoromethyl)pyrimidin-2-yl]amino}phenyl)pyridin-2-ol]",0.1 to 1 µM
15,"Cc1cc(Nc2nccc(C(F)(F)F)n2)cc(-c2ccc(N[C@H](C(=O)O)[C@@H](C)O)nc2)c1 [Example 7.92, N-[5-(3-methyl-5-{[4-(trifluoromethyl)pyrimidin-2-yl]amino}phenyl)pyridin-2-yl]-L-threonine]",< 0.1 µM
16,"Cc1cc(Nc2nccc(C(F)(F)F)n2)cc(-c2ccnc(NCc3cnn(C)c3)c2)c1 [Example 15.35, N-[3-methyl-5-(2-{[(1-methyl-1H-pyrazol-4-yl)methyl]amino}pyridin-4-yl)phenyl]-4-(trifluoromethyl)pyrimidin-2-amine]",0.1 to 1 µM
17,"Cc1cc(Nc2nccc(C(F)(F)F)n2)cc(-c2ccnc(N3CCCC3C(N)=O)c2)c1 (centres unmarked) [Example 15.55, 1-[4-(3-methyl-5-{[4-(trifluoromethyl)pyrimidin-2-yl]amino}phenyl)pyridin-2-yl] prolinamide]",< 0.1 µM
18,"Cc1cc(Nc2nccc(C(F)(F)F)n2)cc(-c2ccc(N3CCC4(CCN(C)C4=O)CC3)nc2)c1 [Example 7.15, 2-methyl-8-[5-(3-methyl-5-{[4-(trifluoromethyl)pyrimidin-2-yl]amino}phenyl)pyridin-2-yl]-2,8-diazaspiro[4.5]decan-1-one]",0.1 to 1 µM

row,Structure (SMILES),IC50
1,"Cc1cc(Nc2nccc(C(F)(F)F)n2)cc(-c2cncc(C3(O)CCN(C(N)=O)C3)c2)c1 (centres unmarked) [Example 10.2, 3-hydroxy-3-[5-(3-methyl-5-{[4-(trifluoromethyl)pyrimidin-2-yl]amino}phenyl)pyridin-3-yl]pyrrolidine-1-carboxamide]",< 0.1 µM
2,"Cc1cc(Nc2nccc(C(F)(F)F)n2)cc(-c2ccc(OC3CCC(C(=O)O)CC3)nc2)c1 (centres unmarked) [Example 2.111, 4-{[5-(3-methyl-5-{[4-(trifluoromethyl)pyrimidin-2-yl]amino}phenyl)pyridin-2-yl]oxy}cyclohexanecarboxylic acid]",< 0.1 µM
3,"Cc1cc(Nc2nccc(C(F)(F)F)n2)cc(-c2ccc(C(C)(O)C(F)(F)F)nc2)c1 (centres unmarked) [Example 2.76, 1,1,1-trifluoro-2-[5-(3-methyl-5-{[4-(trifluoromethyl)pyrimidin-2-yl]amino}phenyl)pyridin-2-yl]propan-2-ol]",0.1 to 1 µM
4,"Cc1cc(Nc2nccc(C(F)(F)F)n2)cc(-c2ccc(N[C@H](C(=O)O)C(C)C)nc2)c1 [Example 7.91, N-[5-(3-methyl-5-{[4-(trifluoromethyl)pyrimidin-2-yl]amino}phenyl)pyridin-2-yl]-L-valine]",< 0.1 µM
5,"Cc1cc(Nc2nccc(C(F)(F)F)n2)cc(-c2ccnc(N3CCC(C(=O)O)CC3)c2)c1 [Example 15.87, 1-[4-(3-methyl-5-{[4-(trifluoromethyl)pyrimidin-2-yl]amino}phenyl)pyridin-2-yl]piperidine-4-carboxylic acid]",< 0.1 µM
6,"Cc1cc(Nc2nccc(C(F)(F)F)n2)cc(-c2ccc(NC(C)c3ccccn3)nc2)c1 (centres unmarked) [Example 7.19, N-(3-methyl-5-{6-[(1-pyridin-2-ylethyl)amino]pyridin-3-yl}phenyl)-4-(trifluoromethyl)pyrimidin-2-amine]",0.1 to 1 µM
7,"COC(=O)Cn1cc(-c2ccc(-c3cc(C)cc(Nc4nccc(C(F)(F)F)n4)c3)cn2)nn1 [Example 25.1, Methyl {4-[5-(3-methyl-5-{[4-(trifluoromethyl)pyrimidin-2-yl]amino}phenyl)pyridin-2-yl]-1H-1,2,3-triazol-1-yl}acetate]",0.1 to 1 µM
8,"Cc1cc(Nc2nccc(C(F)(F)F)n2)cc(-c2ccnc(O)c2)c1 [Example 2.125, 4-(3-methyl-5-{[4-(trifluoromethyl)pyrimidin-2-yl]amino}phenyl)pyridin-2-ol]",< 0.1 µM
9,"Cc1cc(Nc2nccc(C(F)(F)F)n2)cc(-c2ccc(N[C@H](CC(C)C)C(=O)O)nc2)c1 [Example 7.70, N-[5-(3-methyl-5-{[4-(trifluoromethyl)pyrimidin-2-yl]amino}phenyl)pyridin-2-yl]-D-leucine]",< 0.1 µM
10,"NC(=O)c1ccc(-c2cccc(Nc3nccc(C(F)(F)F)n3)c2)nc1 [Example 2.8, 6-(3-{[4-(trifluoromethyl)pyrimidin-2-yl]amino}phenyl)pyridine-3-carboxamide]",0.1 to 1 µM
11,"Cc1cc(Nc2nccc(C(F)(F)F)n2)cc(-c2ccc(N(C)CCC3OCCO3)nc2)c1 [Example 7.41, N-[3-(6-{[2-(1,3-dioxolan-2-yl)ethyl](methyl)amino}pyridin-3-yl)-5-methylphenyl]-4-(trifluoromethyl)pyrimidin-2-amine]",0.1 to 1 µM
12,"CC(O)c1ccc(-c2cc(Nc3nccc(C(F)(F)F)n3)cc(C(=O)O)c2)cn1 (centres unmarked) [Example 26.1, 3-[6-(1-Hydroxyethyl)pyridin-3-yl]-5-{[4-(trifluoromethyl)pyrimidin-2-yl]amino}benzoic acid]",0.1 to 1 µM
13,"Cc1cc(Nc2nccc(C(F)(F)F)n2)cc(-c2ccc(N3CC[C@H](O)[C@H]3C(=O)O)nc2)c1 [Example 7.134, (3S)-3-hydroxy-1-[5-(3-methyl-5-{[4-(trifluoromethyl)pyrimidin-2-yl]amino}phenyl)pyridin-2-yl]-L-proline]",< 0.1 µM
14,"Cc1cc(Nc2nccc(C(F)(F)F)n2)cc(-c2cncc(C(C)(O)C(C)O)c2)c1 (centres unmarked) [Example 9.73, 2-[5-(3-methyl-5-{[4-(trifluoromethyl)pyrimidin-2-yl]amino}phenyl)pyridin-3-yl]butane-2,3-diol]",< 0.1 µM
15,"Cc1cc(Nc2nccc(C(F)(F)F)n2)cc(-c2ccc(C(=O)N3C[C@H]4C[C@@H]3CO4)nc2)c1 [Example 16.40, N-(3-methyl-5-{6-[(1R,4R)-2-oxa-5-azabicyclo[2.2.1]hept-5-ylcarbonyl]pyridin-3-yl}phenyl)-4-(trifluoromethyl)pyrimidin-2-amine]",< 0.1 µM
16,"Cc1cc(Nc2nccc(C(F)(F)F)n2)cc(-c2ccnc(C3(O)COC(C)(C)OC3)c2)c1 [Example 9.62, 2,2-dimethyl-5-[4-(3-methyl-5-{[4-(trifluoromethyl)pyrimidin-2-yl]amino}phenyl)pyridin-2-yl]-1,3-dioxan-5-ol]",0.1 to 1 µM
17,"Cc1cc(Nc2nccc(C(F)(F)F)n2)cc(-c2ccc(N(C)CC(=O)O)nc2)c1 [Example 7.39, N-methyl-N-[5-(3-methyl-5-{[4-(trifluoromethyl)pyrimidin-2-yl]amino}phenyl)pyridin-2-yl]glycine]",< 0.1 µM
